Measurements reported in patent US20250281574A1 (priority 2022, published 2025).
“Also recorded” adds a separate entry of the source. Peptide text beside a SMILES is read from it. * marks the point of attachment. Biotin = O=C1N[C@H]2[C@H](CS[C@H]2CCCCC(=O)*)N1; Ahx = NCCCCCC(=O)O

Assays:
[1] = test system: normal human bronchial epithelial cells (NHBEs); settings: NHBEs treated with 100 mM alcohol
[2] = test system: normal human bronchial epithelial (NHBE) cells; experiment: Trans-epithelial electrical resistance (TER) after H2O2 exposure; assay type: cell-based; settings: NHBE monolayers; aCT1 pre-treatment; 500 mM H2O2; 72 hours
Description: (n=3/group; p-values reported at 72 hours compared to H2O2).
(§1) To determine if aCT1 treatment preserves junctional integrity in human lung cells, human bronchial epithelial cells (NHBEs) were grown as confluent monolayers on Transwell inserts and trans-epithelial electrical resistance (TER) recorded. TER readings measure electrical resistance across a cell monolayer and provide a quantitative metric of intercellular junction integrity.

[3] = Intravenous (bolus) toxicity in rats; settings: rat, in vivo, intravenous administration, read-out: Maximum Tolerated Dose (clinical signs observed)
Description: Intravenous administration (bolus) of aCT1 in rats was well tolerated and a 5 mg/kg dosing level was established as the no-observable-adverse-effect level (NOAEL). Clinical signs were only observed at aCT1 administration levels that are well above the therapeutic range of efficacy, following intravenous administration of aCT1 at ≥10 mg/kg (Maximum Tolerated Dose). The results of these studies uniformly support aCT1 tolerability when delivered locally and systemically via various routes.

[4] = test system: C57BL/6 mice challenged with a lethal dose of lipopolysaccharide (LPS); experiment: LPS-induced lung injury mouse model of ARDS, survival; assay type: in vivo
Description: C57BL/6 mice were pretreated with either 5.76 mg/kg aCT1 peptide, 5.76 mg/kg control peptide, or PBS vehicle control prior to inoculation with a lethal dose (35 mg/kg) of LPS. For FIG. 2A, n=20-22/group and p<0.0001 by Log-rank Mantel-Cox test; for FIG. 2B, n=5-8/group and p<0.001 by Log-rank Mantel-Cox test. Doses are reported as presented dose, with estimated animal body weight of 25 grams.
Studies were undertaken to assess whether delivery of aCT1 to the respiratory tract in animal models of ARDS would reduce epithelial and endothelial breakdown, thereby preserving the air-liquid barrier while preventing fluid accumulation and reducing immune cell infiltration, resulting in the amelioration of ARDS pathology and preserving lung function to improve survival. Using a well characterized mouse model of ARDS, we investigated whether aCT1 applied directly to the lungs could inhibit severe endotoxin induced lung injury. C57BL/6 mice were intranasally challenged with a lethal dose of lipopolysaccharide (LPS) and were treated with aCT1 immediately prior to LPS administration (FIG. 2A), or six (6) hours post LPS exposure (FIG. 2B).

[5] = human
Description: (§2) Clinical trials have been undertaken to assess safety of topical delivery of aCT1.

[6] = test system: human subjects
Description: as §2

[7] = test system: cecal ligation and puncture (CLP) mouse model of sepsis; experiment: Cecal ligation and puncture (CLP) mouse model of sepsis; assay type: in vivo
Description: 3A. For FIG. 3A, n=7-9/group and p=0.052 by Log-rank Mantel-Cox test; for FIG. 3B, n=8/group and p<0.05 by Log-rank Mantel-Cox test. Doses are reported as administered dose, with estimated animal body weight of 25 grams.
Representative images are shown.

[8] = test system: normal human bronchial epithelial (NHBE) cells; experiment: Trans-epithelial electrical resistance (TER) after LPS exposure; assay type: cell-based; settings: aCT1 pre-treatment, 10 μg LPS, 72 hours
Description: Normal human bronchial epithelial (NHBE) cells were exposed to 10 μg LPS. […] (n=3/group; p-values reported at 72 hours compared to LPS).
as §1

[9] = test system: ocular corneal injury models; settings: cited from earlier work

Structure (SMILES): CC[C@H](C)[C@H](NC(=O)[C@H](CCC(=O)O)NC(=O)[C@H](CC(C)C)NC(=O)[C@H](CC(=O)O)NC(=O)[C@H](CC(=O)O)NC(=O)[C@@H]1CCCN1C(=O)[C@H](CCCNC(=N)N)NC(=O)[C@@H]1CCCN1C(=O)[C@H](CCCNC(=N)N)NC(=O)[C@H](CCCCN)NC(=O)[C@H](CCCCN)NC(=O)[C@H](Cc1c[nH]c2ccccc12)NC(=O)[C@@H]1CCCN1C(=O)[C@H](CCCCN)NC(=O)[C@H](CCCNC(=N)N)NC(=O)[C@H](CCCNC(=N)N)NC(=O)[C@H](CC(N)=O)NC(=O)[C@@H]1CCCN1C(=O)[C@H](Cc1ccccc1)NC(=O)[C@H](Cc1c[nH]c2ccccc12)NC(=O)[C@@H](NC(=O)[C@H](CCCCN)NC(=O)[C@@H]1CCCN1C(=O)[C@H](CCC(N)=O)NC(=O)[C@H](CCCNC(=N)N)NC(=O)CCCCCNC(=O)CCCC[C@@H]1SC[C@@H]2NC(=O)N[C@@H]21)[C@@H](C)CC)C(=O)O [aCT1] ({Biotin-Ahx}-RQPKIWFPNRRKPWKKRPRPDDLEI-OH; N-terminus and C-terminus assumed)
- electrical resistance (barrier function) [1]: improved electrical resistance
- TER / intercellular junction integrity [2]: stabilized intercellular junctions; also recorded: significantly increased TER readings
- MTD [3]: ≥ 10 mg/kg
- survival ([4]; lethal LPS 35 mg/kg intranasal, 5.76 mg/kg aCT1 intranasal immediately prior to LPS, p<0.0001 Log-rank): provides significant protection against lipopolysaccharide (LPS)-induced mortality; also recorded: significantly improved survival
- survival ([4]; lethal LPS, aCT1 six hours post LPS, p<0.001 Log-rank): provides significant protection against lipopolysaccharide (LPS)-induced mortality; also recorded: significantly improved survival
- half-life [5]: 15 to 20 min
- immunogenicity (anti-aCT1 antibodies) ([6]; any preclinical study or clinical trial): not immunogenic
- systemic exposure ([6]; pharmacokinetic studies in clinical trials, topical): no systemic exposure
- drug related adverse events ([6]; topical delivery, over 482 human subjects): no drug related adverse events
- immune cell infiltration and alveolar edema (H&E lung histopathology) ([7]; 14.34 mg/kg aCT1 immediately after CLP, lungs at 12 hours post CLP): significantly decreased immune cell infiltration and alveolar edema
- survival ([7]; 14.34 mg/kg aCT1 intravenously immediately after CLP, p=0.052 Log-rank): prolonged survival
- survival ([7]; aCT1 intravenously 6 hours post CLP, p<0.05 Log-rank): prolonged survival
- TER / barrier integrity [8]: stabilized barrier integrity; also recorded: significantly improved TER readings
- inflammatory signaling molecules [9]: reduced inflammatory signaling molecules such as IL-6, IL-1β, TNFα, Cox-2, MMP-9, and VEGF
